We go through 42 molecules from patent US20240101546A1, “HETEROARYL-ACETYLENES, PHARMACEUTICAL COMPOSITIONS THEREOF, AND THEIR THERAPEUTIC APPLICATIONS” (Eubulus Biotherapeutics Inc., priority 2020, published 2024).

SMILES strings stand for the structures. Some results are limits rather than exact numbers.

This assay concerns hepatocellular carcinoma cell line Hub-7. The experiment in a line: Cell proliferation assay, Hub-7 (CELL-TITER GLO). The assay is classed as cell-based. The settings on record: Hub-7 cells, 24 h incubation, cell viability by CELL-TITER GLO, top concentration 10 μM; read-out: EC50, Inhibition of Hub-7 Cell Proliferation. How it is done:
The activity of a compound was determined in a cell proliferation assay using the hepatocellular carcinoma cell line Hub-7. Cells (4,000 cells per well) were seeded in a 96-well tissue culture plate. After incubated overnight, the compound was added at predetermined concentrations, starting with 10 μM and followed by 3-fold serial dilution. After the cells were incubated for 24 h, cell viability was determined using a CELL-TITER GLO® assay. The CELL-TITER GLO® reagent (50 μL) was added to each well and the luminescence was measured by a multimode microplate reader after a brief period of shaking. EC50 values were determined for the compound. The results are summarized in Table 1, wherein A represents a value no greater than 200 nM, B represents a value greater than 200 nM but no greater than 1 μM, C represents a value greater than 1 μM but no greater than 5 μM, and D represents a value greater than 5 μM.
Regarding `C#Cc1nc(C(=O)NCCc2ccc(Br)cc2)cs1` [Compound C80, N-(4-Bromophenethyl)-2-ethynylthiazole-4-carboxamide], the EC50 lay within 200 to 1000 nM.

As for `C#Cc1nc(NC(=O)Cc2ccccc2)cs1` [Compound C77, N-(2-Ethynylthiazol-4-yl)-2-phenylacetamide], the EC50 is 200 to 1000 nM. The figure for `C#Cc1nc(C(=O)NCc2ccc(-c3cc[nH]n3)cc2)cs1` [Compound C91, N-(4-(1H-Pyrazol-3-yl)benzyl)-2-ethynylthiazole-4-carboxamide] is 1000 to 5000 nM.

For the molecule `C#Cc1nc(C(=O)NCc2cccc(CC(N)=O)c2)cs1` [Compound C47, N-(3-(2-Amino-2-oxoethyl)benzyl)-2-ethynylthiazole-4-carboxamide], the EC50 lay in the range of 1000 to 5000 nM. Next, `C#Cc1nc(C(=O)NCc2cccc(CC(=O)OC)c2)cs1` [Compound C46, Methyl 2-(3-((2-ethynylthiazole-4-carboxamido)methyl)phenyl)acetate]: 200 to 1000 nM; `C#Cc1nc(C(=O)NCCc2cccc([N+](=O)[O-])c2)cs1` [Compound C87, 2-Ethynyl-N-(3-nitrophenethyl)thiazole-4-carboxamide]: 200 to 1000 nM.

Take `C#Cc1nc(NC(=O)NCc2ccc(-c3ccccc3S(=O)(=O)NC)cc2)cs1` [Compound A13, 4′-((3-(2-Ethynylthiazol-4-yl)ureido)methyl)-N-methyl-[1,1′-biphenyl]-2-sulfonamide]: the EC50 fell in the range of 200 to 1000 nM.

For the molecule `C#Cc1nc(C(=O)NCCc2ccc(-c3cnn(C)c3)cc2)cs1` [Compound C75, 2-Ethynyl-N-(4-(1-methyl-1H-pyrazol-4-yl)phenethyl)thiazole-4-carboxamide], the EC50 fell in the range of 200 to 1000 nM. The figure for `C#Cc1nc(C(=O)NCCc2ccc(-c3cccc4c3CNC4=O)cc2)cs1` [Compound C17, 2-Ethynyl-N-(4-(1-oxoisoindolin-4-yl)phenethyl)thiazole-4-carboxamide] is at most 200 nM. The figure for `C#Cc1nc(C(=O)NCCc2ccc(-c3cccc4ncccc34)cc2)cs1` [Compound C23, 2-Ethynyl-N-(4-(quinolin-5-yl)phenethyl)thiazole-4-carboxamide] is 200 to 1000 nM; for `C#Cc1nc(C(=O)NCCc2ccc(-c3cccc4c3cnn4C)cc2)cs1` [Compound C33, 2-Ethynyl-N-(4-(1-methyl-1H-indazol-4-yl)phenethyl)thiazole-4-carboxamide] it is 200 to 1000 nM; for `C#Cc1nc(C(=O)NCCc2ccc(-c3c(C(N)=O)ccc4ncsc34)cc2)cs1` [Compound C3, 7-(4-(2-(2-Ethynylthiazole-4-carboxamido)ethyl)phenyl)benzo[d]thiazole-6-carboxamide] it is 200 to 1000 nM. Turning to `C#Cc1nc(NC(=O)N2CCCC2c2ccc(-c3cccc4ncsc34)cc2)cs1` (stereo not drawn) [Compound B1, 2-(4-(Benzo[d]thiazol-7-yl)phenyl)-N-(2-ethynylthiazol-4-yl)pyrrolidine-1-carboxamide], the EC50 is 200 to 1000 nM.

As to `C#Cc1nc(C(=O)NCCc2ccc(NS(C)(=O)=O)cc2)cs1` [Compound C99, 2-Ethynyl-N-(4-(methylsulfonamido)phenethyl)thiazole-4-carboxamide], the EC50 is 1000 to 5000 nM. The figure for `C#Cc1nc(NC(=O)NCc2ccc(-c3cccc(N4CC[C@H](O)C4)c3)cc2)cs1` [Compound A5, (S)-1-(2-Ethynylthiazol-4-yl)-3-((3′-(3-hydroxypyrrolidin-1-yl)-[1,1′-biphenyl]-4-yl)methyl)urea] is 200 to 1000 nM; for `C#Cc1nc(NC(=O)N2Cc3ccc(-c4cccc5ncsc45)cc3C2)cs1` [Compound B4, 5-(Benzo[d]thiazol-7-yl)-N-(2-ethynylthiazol-4-yl)isoindoline-2-carboxamide] it is 200 to 1000 nM. In the case of `C#Cc1nc(C(=O)NCc2ccccc2)c[nH]1` [Compound C111, N-Benzyl-2-ethynyl-1H-imidazole-4-carboxamide], the EC50 was above 5000 nM.

With `C#Cc1nc(C(=O)NCc2ccc(-c3cncs3)cc2)cs1` [Compound C61, 2-Ethynyl-N-(4-(thiazol-5-yl)benzyl)thiazole-4-carboxamide], the EC50 lay in the range of 200 to 1000 nM.

For `C#Cc1nc(C(=O)N2CCN(c3ccc(-c4cccc5ncsc45)cc3Cl)CC2)cs1` [Compound D9, (4-(4-(Benzo[d]thiazol-7-yl)-2-chlorophenyl)piperazin-1-yl)(2-ethynylthiazol-4-yl)methanone], the EC50 is at most 200 nM. Take `C#Cc1nc(C(=O)NCc2cccc(-c3cn[nH]c3)c2)cs1` [Compound C58, N-(3-(1H-Pyrazol-4-yl)benzyl)-2-ethynylthiazole-4-carboxamide]: the EC50 lay within 1000 to 5000 nM.

In the case of `C#Cc1nc(C(=O)NCc2ccccc2NC(C)=O)cs1` [Compound C136, N-(2-Acetamidobenzyl)-2-ethynylthiazole-4-carboxamide], the EC50 is above 5000 nM. Next, `C#Cc1nc(C(=O)NCc2ccccc2)co1` [Compound C142, N-Benzyl-2-ethynyloxazole-4-carboxamide]: above 5000 nM; `C#Cc1nc(C(=O)N2CCN(c3ccc(-c4c(C)ccc5c4cnn5C)cc3)CC2)cs1` [Compound D1, (4-(4-(1,5-Dimethyl-1H-indazol-4-yl)phenyl)piperazin-1-yl)(2-ethynylthiazol-4-yl)methanone]: at most 200 nM.

Turning to `C#Cc1nc(C(=O)NCCc2ccc(-c3cccnc3)cc2)cs1` [Compound C79, 2-Ethynyl-N-(4-(pyridin-3-yl)phenethyl)thiazole-4-carboxamide], the EC50 was 200 to 1000 nM. The figure for `C#Cc1nc(C(=O)NCc2ccc(S(C)(=O)=O)cc2)cs1` [Compound C108, 2-Ethynyl-N-(4-(methylsulfonyl)benzyl)thiazole-4-carboxamide] is 1000 to 5000 nM. The figure for `C#Cc1nc(C(=O)NCCc2ccc(-c3cncs3)cc2)cs1` [Compound C57, 2-Ethynyl-N-(4-(thiazol-5-yl)phenethyl)thiazole-4-carboxamide] is 200 to 1000 nM. As to `C#Cc1nc(C(=O)N2CCC(c3cccc(-c4cccc5ncsc45)c3)CC2)cs1` [Compound D15, (4-(3-(Benzo[d]thiazol-7-yl)phenyl)piperidin-1-yl)(2-ethynylthiazol-4-yl)-methanone], the EC50 was in the range of 200 to 1000 nM. The figure for `C#Cc1nc(C(=O)NCCc2ccc(N)cc2)cs1` [Compound C128, N-(4-Aminophenethyl)-2-ethynylthiazole-4-carboxamide] is 1000 to 5000 nM. On to `C#Cc1nc(C(=O)NCc2ccc(N)cc2)cs1` [Compound C118, N-(4-Aminobenzyl)-2-ethynylthiazole-4-carboxamide], for which the EC50 lay in the range of 200 to 1000 nM.

As to `C#Cc1nc(C(=O)N[C@@H]2CCc3ccccc32)cs1` [Compound C72, (R)—N-(2,3-Dihydro-1H-inden-1-yl)-2-ethynylthiazole-4-carboxamide], the EC50 was in the range of 200 to 1000 nM. Next, `C#Cc1nc(C(=O)N(CC(=O)OCC)Cc2ccccc2)cs1` [Compound C131, Ethyl N-benzyl-N-(2-ethynylthiazole-4-carbonyl)glycinate]: 1000 to 5000 nM.

Turning to `C#Cc1nc(C(=O)N2CCN(c3cccc(-c4cccc5ncsc45)c3)CC2)cs1` [Compound D16, (4-(3-(Benzo[d]thiazol-7-yl)phenyl)piperazin-1-yl)(2-ethynylthiazol-4-yl)-methanone], the EC50 lay within 200 to 1000 nM. Next, `C#Cc1nc(C(=O)N2CCCCC2C(=O)OC)cs1` (stereo not drawn) [Compound D37, Methyl 1-(2-ethynylthiazole-4-carbonyl)piperidine-2-carboxylate]: above 5000 nM; `C#Cc1nc(C(=O)NCCc2ccc(-c3cccc4ncsc34)c(F)c2)cs1` [Compound C2, N-(4-(Benzo[d]thiazol-7-yl)-3-fluorophenethyl)-2-ethynylthiazole-4-carboxamide]: at most 200 nM. Take `C#Cc1nc(C(=O)N2CCN(c3ccc(-c4cc(C(=O)OC)cc5ncsc45)cc3)CC2)cs1` [Compound D4, Methyl 7-(4-(4-(2-ethynylthiazole-4-carbonyl)piperazin-1-yl)phenyl)benzo[d]-thiazole-5-carboxylate]: the EC50 was at most 200 nM.

Consider `C#Cc1nc(C(=O)NCCc2ccc(-c3cccc4c3CC(=O)N4C)cc2)cs1` [Compound C43, 2-Ethynyl-N-(4-(1-methyl-2-oxoindolin-4-yl)phenethyl)thiazole-4-carboxamide], for which the EC50 is 200 to 1000 nM. As for `C#Cc1nc(NC(=O)NCc2ccc(-c3cccc(C(=O)NC)c3)cc2)cs1` [Compound A14, 4′-((3-(2-Ethynylthiazol-4-yl)ureido)methyl)-N-methyl-[1,1′-biphenyl]-3-carboxamide], the EC50 was 200 to 1000 nM. Next, `C#Cc1nc(C(=O)Nc2cccc3cn[nH]c23)cs1` [Compound C134, 2-Ethynyl-N-(11H-indazol-7-yl)thiazole-4-carboxamide]: 1000 to 5000 nM. For the molecule `C#Cc1nc(C(=O)NCc2ccccc2)cn1C` [Compound C98, N-Benzyl-2-ethynyl-1-methyl-1H-imidazole-4-carboxamide], the EC50 was above 5000 nM.

Take `C#Cc1nc(C(=O)NCCc2ccccc2C#N)cs1` [Compound C45, N-(2-Cyanophenethyl)-2-ethynylthiazole-4-carboxamide]: the EC50 lay in the range of 1000 to 5000 nM.

Consider `C#Cc1nc(NC(=O)c2ccccc2)cs1` [Compound E12, N-(2-Ethynylthiazol-4-yl)benzamide], for which the EC50 lay in the range of 1000 to 5000 nM. For `C#Cc1nc(C(=O)N2CCN(c3ccc(-c4cc(C(=O)N(C)C)cc5ncsc45)cc3)CC2)cs1` [Compound D6, 7-(4-(4-(2-Ethynylthiazole-4-carbonyl)piperazin-1-yl)phenyl)-N,N-dimethyl-benzo[d]thiazole-5-carboxamide], the EC50 was at most 200 nM.
